Read-outs that look alike come from different tables or passages of the source. Marks after values point to notes of the source that are not given here.
What was measured:
[1] = Cyclic voltammetry; format: physicochemical; settings: for E1/2 −1/0, first value of cell (anodic peak) / E1/2 −1/0, second value of cell (cathodic peak) / E −2/−1 (reduction of monoanion into dianion) / Epa2 0/+1 / Epc2 0/+1: CH2Cl2, NBu4PF6, Pt, 100 mV.s^−1; for potential difference between the second and the first oxidation potentials: CH2Cl2, NBu4PF6
Excerpt: The redox properties of the various gold(III) bis(dithiolene) and bis(diselenolene) complexes were investigated by cyclic voltammetry using the same conditions, dichloromethane solutions and NBu4PF6 as supporting electrolyte. Under these conditions, the nature of the counter-ion, Ph4P^+ or Et4N^+, had no influence on the redox properties observed, due to ion exchange with the Bu4N^+ of the supporting electrolyte. Thus, only the result of one monoanion is included in Table 1, even if the two salts were analyzed. For all the investigated monoanionic bis(dithiolene) complexes, three redox processes are observed on the cyclic voltammograms. On the anodic scan, the two oxidation waves correspond to the oxidation of the monoanionic species into the neutral and to the monocationic complex. Most of these complexes had the tendency to deposit on the electrode once oxidized and frequently a strong desorption peak was observed on the reversible scan. This phenomenon occurs essentially for the complex with an exocyclic sulfur atom, [AuSR(=S)]^−1. On the cathodic scan, an irreversible process associated with the reduction in the monoanion into the dianion occurs (Scheme 2). […] The presence of oxygen instead of sulfur makes the oxidation of the monoanionic into the neutral species easier. On the other hand, the presence of electron-withdrawing substituents such as =C(CN)2 induces an anodic shift of the oxidation potentials by 300 mV, compared with the =O derivative, leading to a monoanion which is more difficult to oxidize than the other complexes of the series. […] Indeed, the potential difference between the second and the first oxidation potentials amounts to 470 mV and 410 mV for the =O and the =C(CN)2 derivatives, respectively, while for the =S analogues this value is smaller (170 mV). […] For comparison, we also investigated the redox behavior of Auranofin using the same experimental conditions in CH2Cl2 in the presence of NBu4PF6 as a supporting electrolyte. Using these conditions, upon anodic scan only one irreversible oxidation process is observed at 1.42 V vs. SCE. Therefore, all these monoanionic gold bis(dithiolene) and bis(diselenolene) complexes are easier to oxidize than Auranofin.
All reagents and materials from commercial sources were used without further purification. NMR spectra were recorded at room temperature using CDCl3 unless otherwise stated (Figures S7–S15). Chemical shifts are reported in ppm and ^1H NMR spectra were referenced to residual CHCl3 (7.26 ppm) and ^13C NMR spectra were referenced to CHCl3 (77.2 ppm). Mass spectra were recorded with an Agilent 6510 instrument for organics compounds and with a Thermo-Fisher Q-Exactive instrument for complexes by the Center Régional de Mesures Physiques de l’Ouest, Rennes. Cyclic voltammograms (CV)s were carried out on a 10^−3 M solution of complex in CH2Cl2-[NBu4] [PF6] 0.1 M. CVs were recorded on a Biologic SP-50 instruments at 0.1 Vs^−1 on a platinum disk electrode. Potentials were measured versus KCl Saturated Calomel Electrode (SCE). Column chromatography was performed using silica gel Merck 60 (70–260 mesh). The solvents were purified and dried by standard methods. The proligand 2-SEt(=C(CN2)), [72] and complexes [N][AuSMe(=S)], [73] [N][AuSEt(=S)], [74] [P][AuSEt(=O)], [75] [N][AuSeEt(=S)] [75] and [P][AuSPr(=S)] [76] were synthesized according to the previously reported procedure.

[2] = tested on: OVCAR8 ovarian cancer cells; test: MTT cytotoxicity assay in OVCAR8 (cisplatin resistant) ovarian cancer cells; format: cell-based, human; settings: 48 h incubation
Experimental: (§1) Cells were exposed to increasing concentrations of the complexes (0.01–100 μM) for 24 and/or 48 h, at 37 °C. The IC50 values were calculated from dose–response curves using the colorimetric MTT assay. […] Most complexes presented a similar cytotoxicity profile compared to Auranofin, but higher activity compared to Cisplatin, and, most importantly, were active in the Cisplatin-resistant OVCAR8 cells (Table 2).
(§2) The cytotoxic activity of the complexes was evaluated in the A2780 (cisplatin sensitive) (Sigma-Aldrich) and OVCAR8 (cisplatin resistant) (ATCC) ovarian cancer cells. Cells were grown in RPMI-1640 medium (Gibco, Thermo Fisher) supplemented with 10% fetal bovine serum (FBS) and were maintained at 37 °C in a humidified atmosphere with 5% CO2. The complexes were initially dissolved in DMSO and then in culture medium to prepare serial dilutions in the range 10^−9–10^−4 M. After 24 and/or 48 h incubation the cellular viability was measured by the colorimetric MTT assay, as previously described.

[3] = tested on: S. aureus Newman; test: MIC determination, S. aureus; format: cell-based, Staphylococcus aureus; settings: MH broth, 22 h, 37 °C
Excerpt: (§3) The bacterial strains Escherichia coli ATCC25922 and Staphylococcus aureus Newman were used in this work and maintained in Lennox Broth (LB) solid medium, composed of 10 g/L tryptone, 5 g/L yeast extract, 5 g/L NaCl and 20 g/L agar. The fungal strains Candida albicans SC5134 and C. glabrata CBS138 were used in this work and maintained in YPD solid medium, composed of 20 g/L glucose, 20 g/L peptone, 10 g/L yeast extract and 15 g/L agar. The strains were isolated from human infections.
(§4) The antimicrobial activity of the complexes towards the bacterial and fungal strains was assessed by the determination of the Minimal Inhibitory Concentration (MIC) of each complex towards the indicated microbial strains, based on standard methods, and as previously described. […] Serial 1:2 dilutions of stock solutions were prepared for each complex in Mueller–Hinton (MH) broth (Fluka Analytical) or RPMI-1640 medium (Sigma) supplemented with 20 g/L glucose and buffered with 0.165 M morpholinepropanesulphonic acid (RPMIG) to pH 7.0. Solutions prepared with MH were used for testing bacteria, while those prepared with RPMIG were used for testing fungi. For antibacterial activity assays, the final concentrations ranged from 250 to 0.24 μg/mL (when stock solution final concentration was 10 mg/mL), 125 μg/mL to 0.12 μg/mL (when stock solution final concentration was 5 mg/mL) and 62.5 to 0.06 μg/mL (when stock solution final concentration was 2.5 mg/mL). For antifungal assays, the final concentrations ranged from 125 μg/mL to 0.12 μg/mL (when stock solution final concentration was 10 mg/mL), 62.5 to 0.06 μg/mL (when stock solution final concentration was 5 mg/mL) and 31.25 to 0.03 μg/mL (when stock solution final concentration was 2.5 mg/mL). Then, 100 μL aliquots of adequately diluted bacterial suspensions of S. aureus Newman or E. coli ATCC 25922 were mixed with the MH serially diluted complexes aliquots to obtain 5 × 10^5 CFU/mL. In the case of fungi, cultures were diluted to obtain a final optical density of 0.025, measured at 530 nm (OD530). Bacterial suspensions were prepared from cultures grown for 5 h in MH broth at 37 °C and 250 rev·min^−1 and adequately diluted with fresh MH medium, while fungal suspensions were prepared from overnight cultures grown in YPD broth at 30 °C and 250 rev.min^−1 and diluted in buffered RPMIG. After 22 h of incubation at 37 °C (bacteria) or 24 h at 35 °C (fungi), the wells’ content was resuspended by pipetting and the OD640 (bacteria) or OD530 (fungi) were measured in a SPECTROstar Nano microplate reader (BMG Labtech).
(§5) At least three independent experiments were performed in duplicate for each complex under study. […] Positive (no complex) and negative controls (no inoculum) were performed for each experiment. The effect of 5% (V/V) DMSO on microbial growth was also assessed.

[4] = tested on: E. coli ATCC25922; test: MIC determination, E. coli; format: cell-based, Escherichia coli; settings: MH broth, 22 h, 37 °C
Excerpt: as §3, §4, §5

[5] = tested on: C. glabrata CBS138; test: MIC determination, C. glabrata; format: cell-based, Candida glabrata; settings: RPMIG, 24 h, 35 °C
Excerpt: as §3, §4, §5

[6] = tested on: C. albicans SC5134; test: MIC determination, C. albicans; format: cell-based, Candida albicans; settings: RPMIG, 24 h, 35 °C
Excerpt: as §3, §4, §5

[7] = tested on: A2780 ovarian cancer cells; test: MTT cytotoxicity assay in A2780 (cisplatin sensitive) ovarian cancer cells; format: cell-based, human
Experimental: as §1, §2

## CC(C)n1c2c(sc1=S)[Se][Au-]1([Se]c3sc(=S)n(C(C)C)c3[Se]1)[Se]2 [[AuSeiPr(=S)]^−1]
[1]
  E1/2 −1/0, first value of cell (anodic peak): 0.62 V vs. SCE
  E1/2 −1/0, second value of cell (cathodic peak): 0.57 V vs. SCE
  E −2/−1 (reduction of monoanion into dianion): −0.94 V vs. SCE
  Epa2 0/+1: 0.75/− V vs. SCE

## CC[N+](CC)(CC)CC.CCn1c2c(sc1=[Se])[Se][Au-]1([Se]c3sc(=[Se])n(CC)c3[Se]1)[Se]2 [[N][AuSeEt(=Se)]]
[2]
  IC50: 13.9 ± 1.61 µM
[3]
  MIC S. aureus Newman: >62.5 µg/mL
[4]
  MIC E. coli ATCC25922: >62.5 µg/mL
[5]
  MIC C. glabrata CBS138: 1.8 ± 0.5 µg/mL
[6]
  MIC C. albicans SC5134: >31.25 µg/mL
[7]; 24 h incubation, read-out: IC50 A2780, 24 h
  IC50: 26.9 ± 3.02 µM
[7]; 48 h incubation, read-out: IC50 A2780, 48 h
  IC50: 4.84 ± 1.6 µM

## CCn1c2c(sc1=S)[Se][Au-]1([Se]c3sc(=S)n(CC)c3[Se]1)[Se]2 [[AuSeEt(=S)]^−1]
[1]
  E1/2 −1/0, first value of cell (anodic peak): 0.52/− ** V vs. SCE
  E −2/−1 (reduction of monoanion into dianion): −0.89 ** V vs. SCE

## CCn1c2c(sc1=[Se])[S][Au-]1([S]c3sc(=[Se])n(CC)c3[S]1)[S]2 [[AuSEt(=Se)]^−1]
[1]
  E1/2 −1/0, first value of cell (anodic peak): 0.40/− ** V vs. SCE
  E −2/−1 (reduction of monoanion into dianion): −0.80 ** V vs. SCE

## CCN1C(=C(C#N)C#N)SC2=C1[S][Au-]1([S]2)[S]C2=C([S]1)N(CC)C(=C(C#N)C#N)S2 [[AuSEt(=C(CN)2)]^−1]
[1]
  potential difference between the second and the first oxidation potentials: 410 mV
  E1/2 −1/0, first value of cell (anodic peak): 0.71 V vs. SCE
  E1/2 −1/0, second value of cell (cathodic peak): 0.66 V vs. SCE
  Epa2 0/+1: 1.13 V vs. SCE
  Epc2 0/+1: 1.06 V vs. SCE

## CCCn1c2c(sc1=S)[S][Au-]1([S]c3sc(=S)n(CCC)c3[S]1)[S]2 [[AuSPr(=S)]^−1]
[1]
  E1/2 −1/0, first value of cell (anodic peak): 0.56 V vs. SCE
  E1/2 −1/0, second value of cell (cathodic peak): 0.53 V vs. SCE
  E −2/−1 (reduction of monoanion into dianion): −0.85 ** V vs. SCE
  Epa2 0/+1: 0.73 V vs. SCE
  Epc2 0/+1: 0.64 V vs. SCE

## CCn1c2c(sc1=S)[S][Au-]1([S]c3sc(=S)n(CC)c3[S]1)[S]2 [[AuSEt(=S)]^−1]
[1]
  E1/2 −1/0, first value of cell (anodic peak): 0.55 V vs. SCE
  E1/2 −1/0, second value of cell (cathodic peak): 0.49 V vs. SCE
  E −2/−1 (reduction of monoanion into dianion): −0.90 V vs. SCE
  Epa2 0/+1: 0.71 V vs. SCE
  Epc2 0/+1: 0.61 V vs. SCE

## CCn1c2c(sc1=O)[S][Au-]1([S]c3sc(=O)n(CC)c3[S]1)[S]2 [[AuSEt(=O)]^−1]
[1]
  potential difference between the second and the first oxidation potentials: 470 mV
  E1/2 −1/0, first value of cell (anodic peak): 0.42 V vs. SCE
  E1/2 −1/0, second value of cell (cathodic peak): 0.36 V vs. SCE
  E −2/−1 (reduction of monoanion into dianion): −1.05 ** V vs. SCE
  Epa2 0/+1: 0.89 V vs. SCE
  Epc2 0/+1: 0.83 V vs. SCE

## CCn1c2c(sc1=[Se])[Se][Au-]1([Se]c3sc(=[Se])n(CC)c3[Se]1)[Se]2 [[AuSeEt(=Se)]^−1]
[1]
  E1/2 −1/0, first value of cell (anodic peak): 0.43/− ** V vs. SCE
  E −2/−1 (reduction of monoanion into dianion): −0.84 ** V vs. SCE

## CCCCn1c2c(sc1=S)[S][Au-]1([S]c3sc(=S)n(CCCC)c3[S]1)[S]2 [[AuSBu(=S)]^−1]
[1]
  E1/2 −1/0, first value of cell (anodic peak): 0.55 V vs. SCE
  E1/2 −1/0, second value of cell (cathodic peak): 0.50 V vs. SCE
  E −2/−1 (reduction of monoanion into dianion): −0.88 ** V vs. SCE
  Epa2 0/+1: 0.75 V vs. SCE
  Epc2 0/+1: 0.66 V vs. SCE

## CCCn1c2c(sc1=[Se])[S][Au-]1([S]c3sc(=[Se])n(CCC)c3[S]1)[S]2 [[AuSPr(=Se)]^−1]
[1]
  E1/2 −1/0, first value of cell (anodic peak): 0.45/− ** V vs. SCE
  E −2/−1 (reduction of monoanion into dianion): −0.84 ** V vs. SCE

## CCCn1c2c(sc1=S)[Se][Au-]1([Se]c3sc(=S)n(CCC)c3[Se]1)[Se]2 [[AuSePr(=S)]^−1]
[1]
  E1/2 −1/0, first value of cell (anodic peak): 0.54/− ** V vs. SCE
  E −2/−1 (reduction of monoanion into dianion): −0.90 V vs. SCE
  Epa2 0/+1: 0.95/− V vs. SCE

## Cn1c2c(sc1=S)[S][Au-]1([S]c3sc(=S)n(C)c3[S]1)[S]2 [[AuSMe(=S)]^−1]
[1]
  E1/2 −1/0, first value of cell (anodic peak): 0.51 V vs. SCE
  E1/2 −1/0, second value of cell (cathodic peak): 0.44 V vs. SCE
  E −2/−1 (reduction of monoanion into dianion): −0.85 V vs. SCE
  Epa2 0/+1: 0.73 V vs. SCE
  Epc2 0/+1: 0.56 V vs. SCE

From paper PMC9266914, “Broad Spectrum Functional Activity of Structurally Related Monoanionic Au(III) Bis(Dithiolene) Complexes” (International Journal of Molecular Sciences, 2022)
